Assay results as given in PubChem BioAssay AID248 (DTP/NCI, 2004).
Inconclusive results and toxic doses are left out. No stated cut-off is given here; in the data, active means T/C of 150% or more; inactive means T/C below 125%.

System: L1210 leukemia ip in BDF1 mice, survival T/C
Assay: NCI In Vivo Anticancer Drug Screen. Data for tumor model L1210 Leukemia (intraperitoneal) in B6D2F1 (BDF1) mice
Settings: endpoint: mean survival time, higher = longer survival
Outline: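 Transplanted-tumor mice were given test agent; controls received vehicle only. Survival readings from the two groups were divided (treated over control).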

[1] = dose: 100.0 mg/kg/injection, schedule: Q04DX003 (ip), vehicle: Klucel (hydroxypropylcellulose) (HPC)
[2] = dose: 200.0 mg/kg/injection, schedule: Q04DX003 (ip), vehicle: Klucel (hydroxypropylcellulose) (HPC)
[3] = dose: 400.0 mg/kg/injection, schedule: Q04DX003 (ip), vehicle: Klucel (hydroxypropylcellulose) (HPC)
[4] = dose: 100.0 mg/kg/injection, schedule: Q01DX001 (ip), vehicle: carboxymethylcellulose (CMC)
[5] = dose: 200.0 mg/kg/injection, schedule: Q01DX001 (ip), vehicle: carboxymethylcellulose (CMC)
[6] = dose: 400.0 mg/kg/injection, schedule: Q01DX001 (ip), vehicle: carboxymethylcellulose (CMC)
[7] = dose: 100.0 mg/kg/injection, schedule: Q01DX001 (ip), vehicle: saline
[8] = dose: 200.0 mg/kg/injection, schedule: Q01DX001 (ip), vehicle: saline
[9] = dose: 400.0 mg/kg/injection, schedule: Q01DX001 (ip), vehicle: saline
[10] = dose: 25.0 mg/kg/injection, schedule: Q04DX003 (ip), vehicle: saline
[11] = dose: 50.0 mg/kg/injection, schedule: Q04DX003 (ip), vehicle: saline
[12] = dose: 100.0 mg/kg/injection, schedule: Q04DX003 (ip), vehicle: saline
[13] = dose: 200.0 mg/kg/injection, schedule: Q04DX003 (ip), vehicle: saline
[14] = dose: 400.0 mg/kg/injection, schedule: Q04DX003 (ip), vehicle: saline
[15] = dose: 100.0 mg/kg/injection, schedule: Q01DX009 (ip), vehicle: Klucel (hydroxypropylcellulose) (HPC)
[16] = dose: 200.0 mg/kg/injection, schedule: Q01DX009 (ip), vehicle: Klucel (hydroxypropylcellulose) (HPC)
[17] = dose: 400.0 mg/kg/injection, schedule: Q01DX009 (ip), vehicle: Klucel (hydroxypropylcellulose) (HPC)

Measured: T/C

CC(O)CN1C(=O)c2cccc3cc([N+](=O)[O-])cc(c23)C1=O (centres undefined)
inactive: dose: 100.0 mg/kg/injection, schedule: Q04DX002 (ip), vehicle: saline with Tween-80 95 % of control | dose: 200.0 mg/kg/injection, schedule: Q04DX002 (ip), vehicle: saline with Tween-80 103 % of control | dose: 400.0 mg/kg/injection, schedule: Q04DX002 (ip), vehicle: saline with Tween-80 98 % of control

CCS(=O)(=O)C1C2C=CC(O2)C1S(=O)(=O)CC (centres undefined)
inactive: [1] 102 % of control | [2] 101 % of control | [3] 96 % of control

Nc1nc(N)c(N)c(Nc2ccc(O)cc2)n1
inactive: dose: 100.0 mg/kg/injection, schedule: Q01DX Z (ip), vehicle: saline 102 % of control

CC(=O)O/C=C\c1ccccc1
inactive: dose: 50.0 mg/kg/injection, schedule: Q01DX001 (ip), vehicle: carboxymethylcellulose (CMC) 104 % of control | [4] 98 % of control | [5] 107 % of control | [6] 98 % of control

NC(=O)OCCc1c2ccccc2nc2ccccc12
inactive: dose: 200.0 mg/kg/injection, schedule: Q04DX002 (ip), vehicle: other 103 % of control

O=C1Nc2ccc(Cl)cc2C1=O
inactive: dose: 75.0 mg/kg/injection, schedule: Q01DX001 (ip), vehicle: saline 90 % of control | dose: 150.0 mg/kg/injection, schedule: Q01DX001 (ip), vehicle: saline 93 % of control | dose: 300.0 mg/kg/injection, schedule: Q01DX001 (ip), vehicle: saline 93 % of control

CC(=O)Nc1cccc(OCc2cccc([N+](=O)[O-])c2)c1
inactive: [4] 97 % of control | [5] 92 % of control | [6] 108 % of control

c1ccc(C(c2ccccc2)C2CSC2)cc1
inactive: dose: 50.0 mg/kg/injection, schedule: Q04DX002 (ip), vehicle: gum acacia 93 % of control | dose: 100.0 mg/kg/injection, schedule: Q04DX002 (ip), vehicle: gum acacia 100 % of control | dose: 200.0 mg/kg/injection, schedule: Q04DX002 (ip), vehicle: gum acacia 93 % of control

C/C(=N\Nc1c(F)c(F)c(F)c(F)c1F)c1ccccc1
inactive: dose: 100.0 mg/kg/injection, schedule: Q01DX001 (ip), vehicle: saline with Tween-80 105 % of control | dose: 200.0 mg/kg/injection, schedule: Q01DX001 (ip), vehicle: saline with Tween-80 96 % of control | dose: 400.0 mg/kg/injection, schedule: Q01DX001 (ip), vehicle: saline with Tween-80 100 % of control

Cc1ccc(C(CS(=O)(=O)c2ccc(C)cc2)c2ccccc2)cc1 (centres undefined)
inactive: [7] 92 % of control | [8] 103 % of control | [9] 94 % of control

O=Cc1occ(-c2ccccc2)c1-c1ccccc1
inactive: [1] 94 % of control | [2] 97 % of control | [3] 98 % of control

OCC#CC(O)c1ccccc1 (centres undefined)
inactive: dose: 12.5 mg/kg/injection, schedule: Q01DX001 (ip), vehicle: acetone 94 % of control | dose: 12.5 mg/kg/injection, schedule: Q01DX009 (ip), vehicle: saline 94 % of control | dose: 12.5 mg/kg/injection, schedule: Q04DX003 (ip), vehicle: acetone 97 % of control | dose: 12.5 mg/kg/injection, schedule: Q04DX003 (ip), vehicle: saline 96 % of control | dose: 25.0 mg/kg/injection, schedule: Q01DX001 (ip), vehicle: acetone 97 % of control | dose: 25.0 mg/kg/injection, schedule: Q01DX009 (ip), vehicle: saline 92 % of control | [10] 96 % of control | dose: 50.0 mg/kg/injection, schedule: Q01DX001 (ip), vehicle: acetone 92 % of control | dose: 50.0 mg/kg/injection, schedule: Q01DX009 (ip), vehicle: saline 95 % of control | dose: 50.0 mg/kg/injection, schedule: Q04DX003 (ip), vehicle: acetone 95 % of control | [11] 95 % of control | dose: 75.0 mg/kg/injection, schedule: Q01DX009 (ip), vehicle: saline 98 % of control | dose: 115.0 mg/kg/injection, schedule: Q01DX009 (ip), vehicle: saline 107 % of control

CC1C(c2ccccc2)N1P(I)(c1ccccc1)(c1ccccc1)c1ccccc1 (centres undefined)
inactive: dose: 15.0 mg/kg/injection, schedule: Q01DX001 (ip), vehicle: carboxymethylcellulose (CMC) 116 % of control

OCC(O)C1OC(c2ccccc2)OC1C(O)CO (centres undefined)
inactive: [12] 105 % of control | [13] 92 % of control | [14] 99 % of control

O=C(O)/C=C/C(=O)Nc1ccccc1
inactive: [15] 90 % of control | [1] 93 % of control | [16] 97 % of control | [2] 95 % of control | [17] 100 % of control | [3] 95 % of control

Cc1ccc([N+](=O)[O-])c(O)c1[N+](=O)[O-]
inactive: [15] 104 % of control | [1] 102 % of control | [16] 93 % of control | [2] 89 % of control | [3] 102 % of control

NC(=O)Oc1c(Cl)cc(Cl)c(Cl)c1[N+](=O)[O-]
inactive: dose: 25.0 mg/kg/injection, schedule: Q04DX002 (ip), vehicle: Klucel (hydroxypropylcellulose) (HPC) 97 % of control | dose: 50.0 mg/kg/injection, schedule: Q04DX002 (ip), vehicle: Klucel (hydroxypropylcellulose) (HPC) 104 % of control | dose: 100.0 mg/kg/injection, schedule: Q04DX002 (ip), vehicle: Klucel (hydroxypropylcellulose) (HPC) 97 % of control

COc1ccc2c(c1)C(Br)N(S(=O)(=O)c1ccc(C)cc1)CCC2=O (centres undefined)
inactive: dose: 25.0 mg/kg/injection, schedule: Q01DX009 (ip), vehicle: other 97 % of control | dose: 50.0 mg/kg/injection, schedule: Q01DX009 (ip), vehicle: other 95 % of control | dose: 100.0 mg/kg/injection, schedule: Q01DX009 (ip), vehicle: other 92 % of control | dose: 100.0 mg/kg/injection, schedule: Q04DX003 (ip), vehicle: other 92 % of control | dose: 200.0 mg/kg/injection, schedule: Q01DX009 (ip), vehicle: other 104 % of control | dose: 200.0 mg/kg/injection, schedule: Q04DX003 (ip), vehicle: other 97 % of control | dose: 400.0 mg/kg/injection, schedule: Q04DX003 (ip), vehicle: other 89 % of control

NC(=S)N/N=C/c1ccccc1S(=O)(=O)O
inactive: [7] 96 % of control | [8] 94 % of control | [9] 102 % of control

CC(C)C(O)(C(=O)NN)C(=O)NN
inactive: [15] 100 % of control | [12] 105 % of control | [16] 90 % of control | [13] 96 % of control | [17] 93 % of control | [14] 103 % of control

CCS(=O)c1ncc2cnccn12 (centres undefined)
inactive: dose: 50.0 mg/kg/injection, schedule: Q01DX009 (ip), vehicle: water 105 % of control | dose: 100.0 mg/kg/injection, schedule: Q01DX009 (ip), vehicle: water 107 % of control | dose: 100.0 mg/kg/injection, schedule: Q04DX003 (ip), vehicle: water 102 % of control | dose: 200.0 mg/kg/injection, schedule: Q04DX003 (ip), vehicle: water 100 % of control

CCN(CC)C(=O)c1ccc(C(Cl)(Cl)Cl)cc1
inactive: dose: 75.0 mg/kg/injection, schedule: Q01DX009 (ip), vehicle: saline sonified 91 % of control | [1] 87 % of control | dose: 150.0 mg/kg/injection, schedule: Q01DX009 (ip), vehicle: saline sonified 91 % of control | [2] 89 % of control | dose: 300.0 mg/kg/injection, schedule: Q01DX009 (ip), vehicle: saline sonified 87 % of control | [3] 91 % of control

CC(=O)OC1=C(Cl)C(=O)C(OC(C)=O)=C(Cl)C1=O
inactive: dose: 50.0 mg/kg/injection, schedule: Q04DX003 (ip), vehicle: Klucel (hydroxypropylcellulose) (HPC) 106 % of control | [1] 100 % of control | [2] 100 % of control | [3] 92 % of control

CC(C)NNC(=O)c1ccncc1
inactive: [10] 107 % of control | [11] 102 % of control | [12] 96 % of control | [13] 98 % of control | [14] 104 % of control

O=C(O)c1ccccc1C(=O)c1ccc2cccc(F)c2c1
inactive: dose: 100.0 mg/kg/injection, schedule: Q01DX001 (ip), vehicle: Klucel (hydroxypropylcellulose) (HPC) 105 % of control | dose: 200.0 mg/kg/injection, schedule: Q01DX001 (ip), vehicle: Klucel (hydroxypropylcellulose) (HPC) 120 % of control | dose: 400.0 mg/kg/injection, schedule: Q01DX001 (ip), vehicle: Klucel (hydroxypropylcellulose) (HPC) 100 % of control
